# Measurements taken from US20240358829A1, “Lymphocyte Population and Methods for Producing Same” (AVM Biotechnology, LLC, priority 2021, published 2024).
# Where “and” joins values, the source holds several entries; their conditions need not be identical. Equal values may be shown once.
# Test system: CD56+γδTCR+iTCR+ cells
# Assay: AVM0703 R/R NHL clinical trial, whole blood flow cytometry
# Assay type: in vivo, human
# Protocol: FIG. 15. 101-001 size (FSC) and complexity (SSC) scattergram of AVM_NKT cells. […] Blood was stained with panel antibodies based for 15 minutes in the dark at Room Temperature. RBC lysis was performed by addition of 1 mL of 1×BD FACS Lysing Solution (BD Bioscience), diluted with MilliQ water, for 10 minutes in the dark at Room Temperature. Samples were washed with 2 mL 1×DPBS CMF (Gibco) and resuspended in 300 μL of 1×DPBS CMF before 5 μL of 7AAD (Biolegend) was added to each sample for live/dead cell determination and incubated for 5 minutes in the dark at Room Temperature. 250 μL of sample were taken up for acquisition on Macsquant 16 Flow Cytometer (Miltenyi, Serial #40150). Live white blood cells were gated for CD56+ cells co-expressing gamma delta TCR and the invariant TCR and labelled red in the forward versus side scattergram. Red-labelled cells fall within the forward versus side scattergrams where large granular cells such as neutrophils and large granular lymphocytes are known to fall.
# For characterisation of the induced/mobilized population of NKT-like cells (AVM-NKT) in humans, whole blood from human subjects was drawn in K2 EDTA Vacutainer tube (367862, BD Biosciences, NJ) and shipped to AVM Biotechnology at room temperature. 100 μl of whole blood was stained with the following antibodies: CD45 AF700 (2D1), CD16 APC (3G8), INKT PECy7 (6B11), CD8 PE (SK1), CD14 FITC (M5E2), CD56 BV650 (5.1H11), γδTCR BV510 (B1), CD19 BV421 (HIB19), NKp44 APC (P44-8) (all from Biolegend, San Diego, CA) and CD3 APCVio770 (BW264/56), (Miltenyi Biotec, San Jose, CA), 7-AAD, (Biolegend, San Diego CA) was included to distinguish the live and dead cells.
# [1] = patient 101-001, 6 mg/kg, 1 hour post-infusion
# [2] = patient 101-001, 6 mg/kg, Day 14
# [3] = patient 103-002, 6 mg/kg, 1 hour post-infusion
# [4] = patient 103-002, 6 mg/kg, Day 3
# [5] = patient 103-002, 6 mg/kg, Day 14
# [6] = patient 103-005, 9 mg/kg, 1 hour post-infusion
# [7] = patient 103-005, 9 mg/kg, Day 3
# [8] = patient 103-005, 9 mg/kg, Day 14
# [9] = patient 103-006, 9 mg/kg, day 3
# [10] = patient 103-006, 9 mg/kg, day 14
# [11] = patient 108-001, 1st 9 mg/kg infusion, 1 hour
structure (smiles),measurement,setting,value
"C[C@@H]1C[C@H]2[C@@H]3CCC4=CC(=O)C=C[C@]4(C)[C@@]3(F)[C@@H](O)C[C@]2(C)[C@@]1(O)C(=O)COP(=O)(O)O [AVM0703, dexamethasone sodium phosphate]",time to mobilization of bi-specific gamma delta TCR+ invariant TCR+ cell into the blood,"R/R NHL clinical trial patients, dosing between 6 mg/kg and 18 mg/kg",30 to 60 min
same,CD56+gdTCR+ inv TCR+ cells induced,"patient 101-001, 6 mg/kg",YES
same,CD3 (as % of CD56+ γδTCR+ iTCR+ cells),[1],39%
same,CD8med (as % of CD56+ γδTCR+ iTCR+ cells),[1],86%
same,CD19+ (as % of CD56+ γδTCR+ iTCR+ cells),[1],54%
same,CD45 (as % of CD56+ γδTCR+ iTCR+ cells),[1],99%
same,CD56+ γδTCR+ iTCR+ % of total WBCs,[1],0.24%
same,CD56+ γδTCR+ iTCR+ cells/uL,[1],11.4 cells/uL
same,TCRαβ (as % of CD56+ γδTCR+ iTCR+ cells),[1],100%
same,CD3 (as % of CD56+ γδTCR+ iTCR+ cells),[2],99%
same,CD8med (as % of CD56+ γδTCR+ iTCR+ cells),[2],94%
same,CD19+ (as % of CD56+ γδTCR+ iTCR+ cells),[2],22%
same,CD45 (as % of CD56+ γδTCR+ iTCR+ cells),[2],99.5%
same,CD56+ γδTCR+ iTCR+ % of total WBCs,[2],1.74%
same,CD56+ γδTCR+ iTCR+ cells/uL,[2],78.7 cells/uL and 79 cells/uL
same,TCRαβ (as % of CD56+ γδTCR+ iTCR+ cells),[2],99%
same,"CD56+γδTCR+ cells, % of all CD45+ cells","patient 101-001, one hour after 6 mg/kg infusion (pre-infusion 1.6%)",3.48%
same,CD56+γδTCR+ cells/uL blood,"patient 101-001, one hour after 6 mg/kg infusion (pre-infusion 76)",165 cells/uL blood
same,% of CD56+γδTCR+ cells co-expressing invTCR,"patient 103-002, 6 mg/kg",about 10%
same,CD56+gdTCR+ inv TCR+ cells induced,"patient 103-002, 6 mg/kg",YES
same,CD3 (as % of CD56+ γδTCR+ iTCR+ cells),[3],4.2%
same,CD8hi (as % of CD56+ γδTCR+ iTCR+ cells),[3],2.6%
same,CD8med (as % of CD56+ γδTCR+ iTCR+ cells),[3],2.9%
same,CD19+ (as % of CD56+ γδTCR+ iTCR+ cells),[3],0.78%
same,CD45 (as % of CD56+ γδTCR+ iTCR+ cells),[3],92%
same,CD56+ γδTCR+ iTCR+ % of total WBCs,[3],0.83%
same,CD56+ γδTCR+ iTCR+ cells/uL,[3],65.6 cells/uL
same,TCRαβ (as % of CD56+ γδTCR+ iTCR+ cells),[3],79%
same,"CD56+γδTCR+ cells, % of all CD45+ cells","patient 103-002, 6 mg/kg, 1 hour post-infusion (pre-infusion 9.3%)",6.54%
same,CD56+γδTCR+ cells/uL blood,"patient 103-002, 6 mg/kg, 1 hour post-infusion (pre-infusion 735)",517 cells/uL blood
same,CD3 (as % of CD56+ γδTCR+ iTCR+ cells),[4],67%
same,CD8hi (as % of CD56+ γδTCR+ iTCR+ cells),[4],2%
same,CD8med (as % of CD56+ γδTCR+ iTCR+ cells),[4],30%
same,CD19+ (as % of CD56+ γδTCR+ iTCR+ cells),[4],4% and 4.2%
same,CD45 (as % of CD56+ γδTCR+ iTCR+ cells),[4],17%
same,CD56+ γδTCR+ iTCR+ % of total WBCs,[4],1.99%
same,CD56+ γδTCR+ iTCR+ cells/uL,[4],366 cells/uL and 366.2 cells/uL
same,TCRαβ (as % of CD56+ γδTCR+ iTCR+ cells),[4],54%
same,CD3 (as % of CD56+ γδTCR+ iTCR+ cells),[5],31.5%
same,CD8hi (as % of CD56+ γδTCR+ iTCR+ cells),[5],2.4%
same,CD8med (as % of CD56+ γδTCR+ iTCR+ cells),[5],70%
same,CD19+ (as % of CD56+ γδTCR+ iTCR+ cells),[5],1.76%
same,CD45 (as % of CD56+ γδTCR+ iTCR+ cells),[5],98%
same,CD56+ γδTCR+ iTCR+ % of total WBCs,[5],0.42%
same,CD56+ γδTCR+ iTCR+ cells/uL,[5],27 cells/uL
same,TCRαβ (as % of CD56+ γδTCR+ iTCR+ cells),[5],78%
same,CD56+gdTCR+ inv TCR+ cells induced,"patient 103-004, 6 mg/kg",YES
same,CD56+gdTCR+ inv TCR+ cells induced,"patient 103-005, 9 mg/kg",YES
same,CD3 (as % of CD56+ γδTCR+ iTCR+ cells),[6],6%
same,CD8med (as % of CD56+ γδTCR+ iTCR+ cells),[6],17%
same,CD14+ (as % of CD56+ γδTCR+ iTCR+ cells),[6],76%
same,CD16 (as % of CD56+ γδTCR+ iTCR+ cells),[6],66%
same,CD19+ (as % of CD56+ γδTCR+ iTCR+ cells),[6],33.9%
same,CD45 (as % of CD56+ γδTCR+ iTCR+ cells),[6],99%
same,CD56+ γδTCR+ iTCR+ % of total WBCs,[6],0.87%
same,CD56+ γδTCR+ iTCR+ cells/uL,[6],21.8 cells/uL
same,CD3 (as % of CD56+ γδTCR+ iTCR+ cells),[7],10%
same,CD8med (as % of CD56+ γδTCR+ iTCR+ cells),[7],15%
same,CD14+ (as % of CD56+ γδTCR+ iTCR+ cells),[7],8%
same,CD16 (as % of CD56+ γδTCR+ iTCR+ cells),[7],84%
same,CD19+ (as % of CD56+ γδTCR+ iTCR+ cells),[7],28%
same,CD45 (as % of CD56+ γδTCR+ iTCR+ cells),[7],63%
same,CD56+ γδTCR+ iTCR+ % of total WBCs,[7],2.67%
same,CD56+ γδTCR+ iTCR+ cells/uL,[7],82.8 cells/uL
same,CD3 (as % of CD56+ γδTCR+ iTCR+ cells),[8],66%
same,CD8med (as % of CD56+ γδTCR+ iTCR+ cells),[8],16%
same,CD14+ (as % of CD56+ γδTCR+ iTCR+ cells),[8],81%
same,CD16 (as % of CD56+ γδTCR+ iTCR+ cells),[8],37%
same,CD19+ (as % of CD56+ γδTCR+ iTCR+ cells),[8],99%
same,CD45 (as % of CD56+ γδTCR+ iTCR+ cells),[8],84%
same,CD56+ γδTCR+ iTCR+ % of total WBCs,[8],0.66%
same,CD56+ γδTCR+ iTCR+ cells/uL,[8],22.4 cells/uL
same,"CD56+γδTCR+ cells, % of CD45+ cells","patient 103-005, one hour after 9 mg/kg (baseline 2.7%)",0.21%
same,% of CD56+γδTCR+ cells expressing CD16,[9],92%
same,% of CD56+γδTCR+ cells expressing NKp44,[9],19%
same,"CD56+γδTCR+ cells, % of all WBCs",[9],2.2%
same,ICAM3 MFI of CD56+γδTCR+ cells,[9],240
same,% of CD56+γδTCR+ cells expressing CD16,[10],92%
same,% of CD56+γδTCR+ cells expressing NKp44,[10],19%
same,"CD56+γδTCR+ cells, % of all WBCs",[10],2.2% and 0.11%
same,ICAM3 MFI of CD56+γδTCR+ cells,[10],240
same,"CD56+γδTCR+ cells, number or expression in the blood","patient 103-006, one hour after 9 mg/kg",had not changed
same,% of CD56+γδTCR+ cells NKp44+,"patient 103-006, one hour after 9 mg/kg (baseline 42%)",25%
same,ICAM3 MFI of CD56+γδTCR+ cells,"patient 103-006, one hour after 9 mg/kg (baseline 294)",no change
same,CD56+gdTCR+ inv TCR+ cells induced,"patient 108-001, 9 mg/kg",YES
same,CD3 (as % of CD56+ γδTCR+ iTCR+ cells),[11],4%
same,CD8hi (as % of CD56+ γδTCR+ iTCR+ cells),[11],1%
same,CD8med (as % of CD56+ γδTCR+ iTCR+ cells),[11],11%
same,CD14+ (as % of CD56+ γδTCR+ iTCR+ cells),[11],35%
same,CD16 (as % of CD56+ γδTCR+ iTCR+ cells),[11],90%
same,CD19+ (as % of CD56+ γδTCR+ iTCR+ cells),[11],11.3%
